Measurements reported in patent US10806785B2, “Immunomodulator compounds and methods of use” (Incyte Corporation, priority 2016, dated 2020).

target: PD-1/PD-L1 (Homo sapiens (Human), UniProt Q9NZQ7); assay: PD-1/PD-L1 binding assay (HTRF)
Summary of the method: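 HTRF read-out (665/620 nm) after 60 min at 25 °C with 1 nM Eu anti-human IgG and 20 nM APC anti-His. Beforehand, inhibitors were preincubated 40 min with Fc-PD-1 (25-167, […] as listed) and His-PD-L1 (19-238, 10 nM) in PBS pH 7.4 with Tween-20, BSA, 1% DMSO; IC50 from log-concentration curve.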

Sequence of PD-1/PD-L1 (Q9NZQ7 19-238): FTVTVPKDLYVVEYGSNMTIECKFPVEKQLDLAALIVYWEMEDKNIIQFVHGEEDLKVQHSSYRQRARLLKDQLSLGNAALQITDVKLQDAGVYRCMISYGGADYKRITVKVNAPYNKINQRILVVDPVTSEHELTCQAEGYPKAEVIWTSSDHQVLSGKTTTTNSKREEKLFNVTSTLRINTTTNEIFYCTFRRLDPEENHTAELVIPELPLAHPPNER

IC50, ≤ 10 nM:
C[C@@H](O)CN1CCc2c(nc(C(=O)Nc3cccc(-c4cccc(NC(=O)c5nc6c(n5C)CCN(CC57CCC(C(=O)O)(CC5)C7)C6)c4Cl)c3Cl)n2C)C1 [Example 182, (R)-4-((2-(2,2′-dichloro-3′-(5-(2-hydroxypropyl)-1-methyl-4,5,6,7-tetrahydro-1H-imidazo[4,5-c]pyridine-2-carboxamido)biphenyl-3-ylcarbamoyl)-1-methyl-6,7-dihydro-1H-imidazo[4,5-c]pyridin-5(4H)-yl)methyl)bicyclo[2.2.1]heptane-1-carboxylic acid]
Cc1c(-c2nc3c(o2)CN(C(=O)CN[C@@H](C)CO)C3)cccc1-c1cccc(NC(=O)c2nc3c(n2C)CCN(C)C3)c1Cl [Compound 164, (S)—N-(2-chloro-3′-(5-((S)-(1-hydroxypropan-2-yl)glycyl)-5,6-dihydro-4H-pyrrolo[3,4-d]oxazol-2-yl)-2′-methyl-[1,1′-biphenyl]-3-yl)-1,5-dimethyl-4,5,6,7-tetrahydro-1H-imidazo[4,5-c]pyridine-2-carboxamide]
CCN(C)CC(=O)N1Cc2nc(-c3cccc(-c4cccc(NC(=O)c5nc6c(n5C)CCN(C5CCC(C)(C(=O)O)CC5)C6)c4C)c3C)oc2C1 (centres unmarked) [Compound 173, 4-(2-((3′-(5-(N-ethyl-N-methylglycyl)-5,6-dihydro-4H-pyrrolo[3,4-d]oxazol-2-yl)-2,2′-dimethyl-[1,1′-biphenyl]-3-yl)carbamoyl)-1-methyl-1,4,6,7-tetrahydro-5H-imidazo[4,5-c]pyridin-5-yl)-1-methylcyclohexane-1-carboxylic acid]
Cc1c(NC(=O)c2nc3c(n2C)CCN(C2CCC(O)CC2)C3)cccc1-c1cccc(NC(=O)c2nc3c(n2C)CCN(C[C@H]2CC[C@@H](C(=O)O)CC2)C3)c1Cl (single isomer, unassigned) [Compound 138-1, cis-4-((2-((2-chloro-3′-(5-(4-hydroxycyclohexyl)-1-methyl-4,5,6,7-tetrahydro-1H-imidazo[4,5-c]pyridine-2-carboxamido)-2′-methyl-[1,1′-biphenyl]-3-yl)carbamoyl)-1-methyl-1,4,6,7-tetrahydro-5H-imidazo[4,5-c]pyridin-5-yl)methyl)cyclohexane-1-carboxylic acid]
Cc1c(-c2nc3c(o2)CN(C(=O)CN2CCC(C(=O)O)CC2)C3)cccc1-c1cccc(NC(=O)c2nc3c(n2C)CCN(C)C3)c1Cl [Compound 167, 1-(2-(2-(2′-chloro-3′-(1,5-dimethyl-4,5,6,7-tetrahydro-1H-imidazo[4,5-c]pyridine-2-carboxamido)-2-methyl-[1,1′-biphenyl]-3-yl)-4,6-dihydro-5H-pyrrolo[3,4-d]oxazol-5-yl)-2-oxoethyl)piperidine-4-carboxylic acid]
Cn1c(C(=O)Nc2cccc(-c3cccc(NC(=O)c4nc5c(n4C)CCN(C4CCOCC4)C5)c3Cl)c2Cl)nc2c1CCN(CCc1ccc(C(=O)O)cc1)C2 [Example 96, 4-(2-(2-((2,2′-dichloro-3′-(1-methyl-5-(tetrahydro-2H-pyran-4-yl)-4,5,6,7-tetrahydro-1H-imidazo[4,5-c]pyridine-2-carboxamido)-[1,1′-biphenyl]-3-yl)carbamoyl)-1-methyl-1,4,6,7-tetrahydro-5H-imidazo[4,5-c]pyridin-5-yl)ethyl)benzoic acid]
Cc1c(NC(=O)c2nc3c(n2C)CCN(C)C3)cccc1-c1cccc(NC(=O)c2nc3c(n2C)CCN(CC2CCC(C)(C(=O)O)CC2)C3)c1Cl (single isomer, unassigned) [Compound 120-1, 4-((2-((2-chloro-3′-(1,5-dimethyl-4,5,6,7-tetrahydro-1H-imidazo[4,5-c]pyridine-2-carboxamido)-2′-methyl-[1,1′-biphenyl]-3-yl)carbamoyl)-1-methyl-1,4,6,7-tetrahydro-5H-imidazo[4,5-c]pyridin-5-yl)methyl)-1-methylcyclohexane-1-carboxylic acid]
Cn1c(C(=O)Nc2cccc(-c3cccc(NC(=O)c4nc5c(n4C)CCN(CC4CC4)C5)c3Cl)c2Cl)nc2c1CCN(CC[C@H]1CC[C@H](C(=O)O)CC1)C2 [Example 87, trans-4-(2-(2-((2,2′-dichloro-3′-(5-(cyclopropylmethyl)-1-methyl-4,5,6,7-tetrahydro-1H-imidazo[4,5-c]pyridine-2-carboxamido)-[1,1′-biphenyl]-3-yl)carbamoyl)-1-methyl-1,4,6,7-tetrahydro-5H-imidazo[4,5-c]pyridin-5-yl)ethyl)cyclohexane-1-carboxylic acid]
Cc1c(NC(=O)c2nc3c(n2C)CCN(C[C@H](C)O)C3)cccc1-c1cccc(NC(=O)c2nc3c(n2C)CCN(C2CCC2)C3)c1Cl [Example 44, (S)—N-(2-chloro-3′-(5-(2-hydroxypropyl)-1-methyl-4,5,6,7-tetrahydro-1H-imidazo[4,5-c]pyridine-2-carboxamido)-2′-methylbiphenyl-3-yl)-5-cyclobutyl-1-methyl-4,5,6,7-tetrahydro-1H-imidazo[4,5-c]pyridine-2-carboxamide]
C[C@@H](O)CN1CCc2c(nc(C(=O)Nc3cccc(-c4cccc(NC(=O)c5nc6c(n5C)CCN(C[C@H]5CC[C@H](C(=O)O)CC5)C6)c4Cl)c3Cl)n2C)C1 [Example 67, trans-4-((2-((2,2′-dichloro-3′-(5-((R)-2-hydroxypropyl)-1-methyl-4,5,6,7-tetrahydro-1H-imidazo[4,5-c]pyridine-2-carboxamido)-[1,1′-biphenyl]-3-yl)carbamoyl)-1-methyl-1,4,6,7-tetrahydro-5H-imidazo[4,5-c]pyridin-5-yl)methyl)cyclohexane-1-carboxylic acid]
CC(=O)N1CCC(N2CCc3c(nc(C(=O)Nc4cccc(-c5cccc(NC(=O)c6nc7c(n6C)CCN(C)C7)c5Cl)c4C)n3C)C2)CC1 [Example 34, 5-(1-acetylpiperidin-4-yl)-N-(2′-chloro-3′-(1,5-dimethyl-4,5,6,7-tetrahydro-1H-imidazo[4,5-c]pyridine-2-carboxamido)-2-methylbiphenyl-3-yl)-1-methyl-4,5,6,7-tetrahydro-1H-imidazo[4,5-c]pyridine-2-carboxamide]
Cn1c(C(=O)Nc2cccc(-c3cccc(NC(=O)c4nc5c(n4C)CCN(C[C@H]4CC[C@@H](C(=O)O)CC4)C5)c3Cl)c2Cl)nc2c1CCN(CCO)C2 [Example 74, cis-4-((2-((2,2′-dichloro-3′-(5-(2-hydroxyethyl)-1-methyl-4,5,6,7-tetrahydro-1H-imidazo[4,5-c]pyridine-2-carboxamido)-[1,1′-biphenyl]-3-yl)carbamoyl)-1-methyl-1,4,6,7-tetrahydro-5H-imidazo[4,5-c]pyridin-5-yl)methyl)cyclohexane-1-carboxylic acid]
Cn1c(C(=O)Nc2cccc(-c3cccc(NC(=O)c4nc5c(n4C)CCN(C[C@H]4CC[C@@H](C(=O)O)CC4)C5)c3Cl)c2Cl)nc2c1CCN(CC1CC1)C2 [Example 71, cis-4-((2-((2,2′-dichloro-3′-(5-(cyclopropylmethyl)-1-methyl-4,5,6,7-tetrahydro-1H-imidazo[4,5-c]pyridine-2-carboxamido)-[1,1′-biphenyl]-3-yl)carbamoyl)-1-methyl-1,4,6,7-tetrahydro-5H-imidazo[4,5-c]pyridin-5-yl)methyl)cyclohexane-1-carboxylic acid]
Cc1c(NC(=O)c2nc3c(n2C)CCN(CCc2ccc(C(=O)O)cc2)C3)cccc1-c1cccc(NC(=O)c2nc3c(n2C)CCN(C)C3)c1Cl [Example 101, 4-(2-(2-((2′-chloro-3′-(1,5-dimethyl-4,5,6,7-tetrahydro-1H-imidazo[4,5-c]pyridine-2-carboxamido)-2-methyl-[1,1′-biphenyl]-3-yl)carbamoyl)-1-methyl-1,4,6,7-tetrahydro-5H-imidazo[4,5-c]pyridin-5-yl)ethyl)benzoic acid]
Cc1c(NC(=O)c2nc3c(n2C)CCN(C2CCC(C(=O)O)CC2)C3)cccc1-c1cccc(NC(=O)c2nc3c(n2C)CCN(C2CCOCC2)C3)c1Cl (centres unmarked) [Example 111, 4-(2-((2′-chloro-2-methyl-3′-(1-methyl-5-(tetrahydro-2H-pyran-4-yl)-4,5,6,7-tetrahydro-1H-imidazo[4,5-c]pyridine-2-carboxamido)-[1,1′-biphenyl]-3-yl)carbamoyl)-1-methyl-1,4,6,7-tetrahydro-5H-imidazo[4,5-c]pyridin-5-yl)cyclohexane-1-carboxylic acid]
CN1CCc2c(nc(C(=O)Nc3cccc(-c4cccc(NC(=O)c5nc6c(n5C)CCN(C5CCC(C)(C(=O)O)CC5)C6)c4Cl)c3Cl)n2C)C1 (centres unmarked) [Example 80, 4-(2-((2,2′-dichloro-3′-(1,5-dimethyl-4,5,6,7-tetrahydro-1H-imidazo[4,5-c]pyridine-2-carboxamido)-[1,1′-biphenyl]-3-yl)carbamoyl)-1-methyl-1,4,6,7-tetrahydro-5H-imidazo[4,5-c]pyridin-5-yl)-1-methylcyclohexane-1-carboxylic acid]
Cn1c(C(=O)Nc2cccc(-c3cccc(-c4nc5c(o4)CN(C(=O)CN4CC[C@@H](O)C4)C5)c3Cl)c2Cl)nc2c1CCN(CCC1CCC(C(=O)O)CC1)C2 (stereo partly drawn) [Compound 171, (R)-4-(2-(2-(2,2′-dichloro-3′-(5-(2-(3-hydroxypyrrolidin-1-yl)acetyl)-5,6-dihydro-4H-pyrrolo[3,4-d]oxazol-2-yl)biphenyl-3-ylcarbamoyl)-1-methyl-6,7-dihydro-1H-imidazo[4,5-c]pyridin-5(4H)-yl)ethyl)cyclohexane-1-carboxylic acid]
